Measurements taken from article PMC10318456, “Selective inhibitors of the PSEN1–gamma-secretase complex” (The Journal of Biological Chemistry, 2023).
Several values for one entry are separate records, joined by “and”; a condition that tells them apart may be missing. Equal values may be shown once.

Key:
[1] = biological target: T1, PSEN1 I168A–APH1A γ-secretase complex (Homo sapiens, UniProt P49768, I168A); experiment: Aβ40 secretion, MEF cell pool restored with PSEN1 I168A–APH1A; format: cell-based; conditions: decimal comma; for IC50: PSEN1 I168A (TM3)–APH1A cell pool, N = 3 to 4, mean (95% CI)
T1 construct: expressed in transfected cells; host or cells: Psen1/2 double KO/Aph1ABC triple KO MEFs, pools without clonal selection
Experimental: (§1) We turned to experimental site–directed mutagenesis and selected a series of amino acids (Fig. 3) in the entrance channel for mutation to alanine. […] More importantly, they were all enzymatically active as shown by the secretion of Aβ40 in the supernatants of the cell cultures (Fig. 3B).
(§2) Conditional Psen1/2 double KO mice were crossed with conditional Aph1ABC triple KO mice ([29], [52], [58], [59]). At embryonic day 7.5, embryos were dissected and dissociated, and cells were plated in the presence of Dulbecco’s modified Eagle’s medium (DMEM)/F12 50% fetal calf serum (FCS) (Invitrogen). Primary MEFs were immortalized by transduction with LargeT antigen. Psen1/2 double KO/Aph1ABC triple KO MEFs were generated by transduction with a Cre-GFP–expressing adenoviral vector, and GFP-positive MEFs were sorted by fluorescence-activated cell sorting analysis. Psen1/2 Aph1ABC-deficient MEFs were maintained in DMEM/f12 10% FCS. To rescue γ-secretase expression, Psen1/2 double KO/Aph1ABC triple KO MEFs were transduced using Murine Stem Cell Virus retroviral vector system (pMSCV) viral vectors (Clontech) containing the human coding sequences of the different PSEN and APH1 homologs and the zeocin selection marker. An Internal Ribosome Entry Site sequence was cloned between the coding sequences for PSEN and APH1 to ensure co-expression of both proteins. Stable transfected cell lines were selected using 500-μg/ml zeocin (Invitrogen). Four different combinations were made: PSEN1 and APH1AL, PSEN1 and APH1B, PSEN2 and APH1AL, and PSEN2 and APH1B. These cell lines were transduced with pMSCV viral vectors (Clontech) expressing APP-C99-GFP-puromycin. […]
(§3) The number of plated cells and incubation times were determined in respect to linearity of Aβ peptide secretion, the dynamic range of Aβ peptide quantification in the medium, and sensitivity to dimethylsulfoxide (DMSO). […] The cell viability was assessed using the CellTiter-Glo Luminescent assay (Promega) that measures ATP production. […] We however measured five compounds at the Leuven site and noticed that absolute IC50 values were different (Fig. S2). […]

[2] = system: PSEN1 versus PSEN2 γ-secretase complexes; experiment: Comparison of the four MEF cell lines: selectivity between γ-secretase complexes (IC50 ratios); format: cell-based, human
Source text: Mouse embryonic fibroblast (MEF) cells deficient for the Psen and Aph1 genes (Psen1/2^−/−, Aph1ABC^−/−) were reconstituted with human PSEN1 or PSEN2 and with human APH1A or APH1B to generate four independent cell lines, each constitutively expressing exclusively one type of γ-secretase complex (Fig. S1A) ([19]). A human APP-C99-GFP reporter was introduced to enable the measurement of Aβ peptides in the conditioned media of the cells to monitor γ-secretase activity. The assay was established in a 96-well format.
GraphPad Prism 7 software was used to generate inhibition fitting curves (four-parameter logistic equation, nonlinear regression) and to determine IC50 and 95% CI values (Fig. S2). Selectivity values (IC50 ratios of PSEN1 versus PSEN2) above 10 are highlighted in red.
The number of plated cells and incubation times were determined in respect to linearity of Aβ peptide secretion, the dynamic range of Aβ peptide quantification in the medium, and sensitivity to dimethylsulfoxide (DMSO). […] MEF cells were plated in DMEM F12 supplemented with 10% FCS at 10,000 cells per well in 96-well clear bottom plates in the late afternoon and cultured for 16 h at 37 °C, 5% CO2. In the morning of the second day, the medium was replaced with 60 μl of DMEM/F12 supplemented with 2% FCS, and GSI or DMSO (controls) were added. Compounds were tested in serial dilutions with concentrations ranging from […] to 0.1 nM with 3-fold changes. The final concentration of DMSO in all wells was 0.2%. Plates were put in the incubator again at 37 °C, 5% CO2. After 8 h, the culture media were collected, and 30 μl was used to measure Aβ40 peptides. The cell viability was assessed using the CellTiter-Glo Luminescent assay (Promega) that measures ATP production. All screens were performed at one site, and reported IC50 values throughout the manuscript are from this site (Beerse) unless otherwise indicated.
GraphPad Prism 7 software (https://www.graphpad.com) was used to generate inhibition fitting curves (four-parameter logistic equation, nonlinear regression) and to determine IC50 values and 95% CI.

[3] = biological target: T2, PSEN1 M146A–APH1A γ-secretase complex (Homo sapiens, UniProt P49768, M146A); experiment: Aβ40 secretion, MEF cell pool restored with PSEN1 M146A–APH1A; format: cell-based; conditions: decimal comma; for IC50: PSEN1 M146A (TM2)–APH1A cell pool, N = 3 to 4, mean (95% CI); for IC50 fold change to WT: PSEN1 M146A–APH1A cell pool
T2 construct: expressed in transfected cells; host or cells: Psen1/2 double KO/Aph1ABC triple KO MEFs, pools without clonal selection
Experimental: as §1
Conditional Psen1/2 double KO mice were crossed with conditional Aph1ABC triple KO mice ([29], [52], [58], [59]). At embryonic day 7.5, embryos were dissected and dissociated, and cells were plated in the presence of Dulbecco’s modified Eagle’s medium (DMEM)/F12 50% fetal calf serum (FCS) (Invitrogen). Primary MEFs were immortalized by transduction with LargeT antigen. Psen1/2 double KO/Aph1ABC triple KO MEFs were generated by transduction with a Cre-GFP–expressing adenoviral vector, and GFP-positive MEFs were sorted by fluorescence-activated cell sorting analysis. Psen1/2 Aph1ABC-deficient MEFs were maintained in DMEM/f12 10% FCS. To rescue γ-secretase expression, Psen1/2 double KO/Aph1ABC triple KO MEFs were transduced using Murine Stem Cell Virus retroviral vector system (pMSCV) viral vectors (Clontech) containing the human coding sequences of the different PSEN and APH1 homologs and the zeocin selection marker. An Internal Ribosome Entry Site sequence was cloned between the coding sequences for PSEN and APH1 to ensure co-expression of both proteins. Stable transfected cell lines were selected using 500-μg/ml zeocin (Invitrogen). Four different combinations were made: PSEN1 and APH1AL, PSEN1 and APH1B, PSEN2 and APH1AL, and PSEN2 and APH1B. These cell lines were transduced with pMSCV viral vectors (Clontech) expressing APP-C99-GFP-puromycin. After puromycin selection (5 μg/ml), GFP-positive cells were selected through FACS sorting. For the alanine mutagenesis experiment, pMSCV PSEN1-APH1A viral vectors were generated by using a long PCR-based QuikChange strategy (Stratagene). Stable cell lines without clonal selection were generated for each mutant as described above. All cell lines were regularly tested for the absence of mycoplasma and used for maximum 20 passages in culture.
as §3, with “(DMSO). […] MEF cells were plated in DMEM F12 supplemented with 10% FCS at 10,000 cells per well in 96-well clear bottom plates in the late afternoon and cultured for 16 h at 37 °C, 5% CO2.” for “(DMSO).”

[4] = biological target: T3, PSEN1 L150A–APH1A γ-secretase complex (Homo sapiens, UniProt P49768, L150A); experiment: Aβ40 secretion, MEF cell pool restored with PSEN1 L150A–APH1A; format: cell-based; conditions: decimal comma; for IC50: PSEN1 L150A (TM2)–APH1A cell pool, N = 3 to 4, mean (95% CI)
T3 construct: expressed in transfected cells; host or cells: Psen1/2 double KO/Aph1ABC triple KO MEFs, pools without clonal selection
Experimental: as §1, §2, §3

| IC50 [1] [µM] | IC50 [3] [µM] | IC50 fold change to WT [3] | IC50 [4] [µM] | IC50 fold change to WT ([4]; PSEN1 L150A–APH1A cell pool) | IC50 fold change to WT ([1]; PSEN1 I168A–APH1A cell pool) | SMILES | selectivity toward the different γ-secretase complexes ([2]; four MEF cell lines) [fold] | selectivity for PSEN1 complexes versus PSEN2 complexes ([2]; IC50 ratios of PSEN1 versus PSEN2, MEF cell lines) [fold] | selectivity PSEN1–APH1B versus PSEN1–APH1A ([2]; MEF cell lines) [fold] |
| --- | --- | --- | --- | --- | --- | --- | --- | --- | --- |
| 0.043 | 0.234 | 1,386 fold | 0.879 | 5,207 fold and > 3 fold | – | C[C@H](NC(=O)Cc1cc(F)cc(F)c1)C(=O)N[C@H](C(=O)OC(C)(C)C)c1ccccc1 [DAPT] | < 10 | – | – |
| 0.015 | 0.031 | 1,076 fold | 1.09 | – | 0,511 fold | O=S(=O)(c1ccc(Cl)cc1)N1[C@H]2CC[C@@H]([C@H]1c1ccc(C(F)(F)F)cc1)[C@@H](O)C2 [(+)-9b] | – | > 250 | 4 |
